# Columns and labels:
# HL-60 = assay: Antiproliferative activity against human HL60 cells assessed as cell growth inhibition measured after 48 hrs by MTT assay; format: functional, cell-based; settings: HL-60, 48 h
# HepG2 [1] = assay: Antiproliferative activity against human HepG2 cells assessed as cell growth inhibition measured after 48 hrs by MTT assay; format: functional, cell-based; settings: HepG2, 48 h
# MCF7 = assay: Antiproliferative activity against human MCF7 cells assessed as cell growth inhibition measured after 48 hrs by MTT assay; format: functional, cell-based; settings: MCF7, 48 h
# HepG2 [2] = assay: Cell cycle arrest in human HepG2 cells assessed as accumulation at pre-G1 phase at IC50 concentration by DNase/propidium iodide staining based flow cytometry analysis (reference value: 1.59 %); format: functional
# HepG2 [3] = assay: Cell cycle arrest in human HepG2 cells assessed as accumulation at G2/M phase at IC50 concentration by DNase/propidium iodide staining based flow cytometry analysis (reference value: 10.06 %); format: functional
# HepG2 [4] = assay: Induction of apoptosis in human HepG2 cells assessed as necrotic cells at IC50 concentration by annexinV-FITC/propidium iodide staining based flow cytometry (reference value: […]); format: functional
# HepG2 [5] = assay: Induction of apoptosis in human HepG2 cells assessed as early apoptotic cells at IC50 concentration by annexinV-FITC/propidium iodide staining based flow cytometry (reference value: 0.69 %); format: functional
# HepG2 [6] = assay: Cell cycle arrest in human HepG2 cells assessed as accumulation at S phase at IC50 concentration by DNase/propidium iodide staining based flow cytometry analysis (reference value: 32.51 %); format: functional
# [7] = molecular target: Tubulin beta (Homo sapiens) (UniProt P68371+Q9H4B7+Q13509+P04350+Q3ZCM7+P07437+Q13885+Q9BVA1+Q9BUF5+A6NNZ2); assay: Inhibition of tubulin beta polymerization in human HepG2 cells at IC50 using TMB substrate preincubated for 2 hrs followed by substrate addition measured after 15 to 20 mins in presence of GTP by ELISA relative to control; format: cell-based
# HepG2 [8] = assay: Induction of apoptosis in human HepG2 cells assessed as activation of caspase 3 measured after 0.5 to 1 hrs by fluorescence assay relative to control; format: functional
# HepG2 [9] = assay: Cell cycle arrest in human HepG2 cells assessed as accumulation at G0/G1 phase at IC50 concentration by DNase/propidium iodide staining based flow cytometry analysis (reference value: 57.43 %); format: functional
# Tubulin [10] = molecular target: Tubulin (Sus scrofa, UniProt P02554+P02550); assay: Inhibition of porcine brain tubulin polymerization assessed as decrease in fluorescence intensity measured every 60 sec for 90 mins in presence of GTP by DAPI staining based fluorescence assay
# HepG2 [11] = assay: Induction of apoptosis in human HepG2 cells assessed as viable cells at IC50 concentration by annexinV-FITC/propidium iodide staining based flow cytometry (reference value: 98.41 %); format: functional
# HepG2 [12] = assay: Induction of apoptosis in human HepG2 cells assessed as late apoptotic cells at IC50 concentration by annexinV-FITC/propidium iodide staining based flow cytometry (reference value: 0.38 %); format: functional
# Tubulin [13] = molecular target: Tubulin (Bos taurus, UniProt Q6B856+Q862L2+Q862F3); assay: Inhibition of [3H] colchicine binding to bovine brain tubulin incubated for 30 mins by scintillation proximity assay
Compound,IC50 (HL-60) [nM],IC50 (HepG2 [1]) [nM],IC50 (MCF7) [nM],other results
COc1cc(-c2nc(C(=O)Nc3ccccc3)nn2-c2ccc(F)c(Cl)c2)cc(OC)c1OC,1000,2230,170,
COc1ccc(NC(=O)c2nc(-c3cc(OC)c(OC)c(OC)c3)n(-c3ccc(F)c(Cl)c3)n2)c(C)c1,360,580,1560,
COc1cccc(NC(=O)c2nc(-c3cc(OC)c(OC)c(OC)c3)n(-c3ccc(F)c(Cl)c3)n2)c1,800,560,440,
COc1cc(-c2nc(C(=O)Nc3cc(F)cc(F)c3)nn2-c2ccc(F)c(Cl)c2)cc(OC)c1OC,3750,710,4910,
CCOc1ccc(NC(=O)c2nc(-c3cc(OC)c(OC)c(OC)c3)n(-c3ccc(F)c(Cl)c3)n2)cc1,600,1490,520,
COc1cc(-c2nc(C(=O)Nc3ccc(F)c(Cl)c3)nn2-c2ccc(F)c(Cl)c2)cc(OC)c1OC,5470,900,120,
COc1cc(-c2nc(C(=O)Nc3ccc(OC(F)(F)F)cc3)nn2-c2ccc(F)c(Cl)c2)cc(OC)c1OC,160,100,310,
COc1cc(-c2nc(C(=O)Nc3ccccc3F)nn2-c2ccc(F)c(Cl)c2)cc(OC)c1OC,10,12700,190,
COc1ccc(C)cc1NC(=O)c1nc(-c2cc(OC)c(OC)c(OC)c2)n(-c2ccc(F)c(Cl)c2)n1,1820,2820,130,
COc1ccc(NC(=O)c2nc(-c3cc(OC)c(OC)c(OC)c3)n(-c3ccc(F)c(Cl)c3)n2)cc1Cl,700,2140,1010,
COc1cc(-c2nc(C(=O)Nc3ccc(F)c(F)c3F)nn2-c2ccc(F)c(Cl)c2)cc(OC)c1OC,1320,410,140,

# Further lines, with some results ahead:
IC50 (HL-60) [nM],IC50 (HepG2 [1]) [nM],IC50 (MCF7) [nM],Compound,other results
1180,1590,50,COc1cc(-c2nc(C(=O)Nc3ccc(C(=O)O)cc3)nn2-c2ccc(F)c(Cl)c2)cc(OC)c1OC,
4,350,1510,COc1ccccc1NC(=O)c1nc(-c2cc(OC)c(OC)c(OC)c2)n(-c2ccc(F)c(Cl)c2)n1,Activity (HepG2 [2]): 19.22%; Activity (HepG2 [3]): 40.56%; Activity (HepG2 [4]): 2.66%; Activity (HepG2 [5]): 5.24%; Activity (HepG2 [6]): 24.67%; inhibition [7]: 62%; fold change (FC) (HepG2 [8]): 7; Activity (HepG2 [9]): 34.77%; IC50 (Tubulin [10]): 1030 nM; Activity (HepG2 [11]): 80.78%; Activity (HepG2 [12]): 11.32%; IC50 (Tubulin [13]): 3580 nM; Kd (Tubulin [13]): 540 nM; Ki (Tubulin [13]): 260 nM
2660,40,2100,COc1ccc(-n2nc(C(=O)Nc3ccc(F)c(F)c3F)nc2-c2cc(OC)c(OC)c(OC)c2)cc1Cl,Activity (HepG2 [2]): 31.04%; Activity (HepG2 [3]): 55.08%; Activity (HepG2 [4]): 2.78%; Activity (HepG2 [5]): 6.06%; Activity (HepG2 [6]): 18.61%; inhibition [7]: 82%; fold change (FC) (HepG2 [8]): 9; Activity (HepG2 [9]): 26.31%; IC50 (Tubulin [10]): 760 nM; Activity (HepG2 [11]): 68.96%; Activity (HepG2 [12]): 22.2%
230,680,30,COc1ccc(-n2nc(C(=O)Nc3ccc(F)c(Cl)c3)nc2-c2cc(OC)c(OC)c(OC)c2)cc1Cl,inhibition [7]: 73%; IC50 (Tubulin [10]): 700 nM; IC50 (Tubulin [13]): 2110 nM; Kd (Tubulin [13]): 320 nM; Ki (Tubulin [13]): 150 nM
300,520,180,COc1cc(-c2nc(C(=O)Nc3ccc(F)cc3)nn2-c2ccc(F)c(Cl)c2)cc(OC)c1OC,
2260,750,650,COc1ccc(NC(=O)c2nc(-c3cc(OC)c(OC)c(OC)c3)n(-c3ccc(F)c(Cl)c3)n2)cc1,
620,990,110,COc1cc(-c2nc(C(=O)Nc3cccc(F)c3)nn2-c2ccc(F)c(Cl)c2)cc(OC)c1OC,
810,7110,39,COc1ccc(-n2nc(C(=O)Nc3ccc(OC(F)(F)F)cc3)nc2-c2cc(OC)c(OC)c(OC)c2)cc1Cl,

# From ChEMBL document CHEMBL4311964, “Potent combretastatin A-4 analogs containing 1,2,4-triazole: Synthesis, antiproliferative, anti-tubulin activity, and docking study” (Eur J Med Chem, 2019)
